Laboratory results from patent US12129504B2, “Caproate-producing bacterium with multiple substrate utilization capabilities and its applications” (Jiangnan University, priority 2021, dated 2024).

Tests used:
[1] = cited from earlier work
[2] = tested on: Oscillospiraceae sp. LBM10036; assay: Tolerance of the strain to toxicity of caproic acid: growth (OD600) in liquid mediums with different initial concentrations of caproic acid; assay type: cell-based
Description: A brewing environment of Strong aroma-type Baijiu is characterized by a low pH, and the lower the pH, the higher the content of free caproic acid in a system. Free caproic acid can cause toxicity to bacterial cells, therefore, the stronger the tolerance of bacterial cells to the toxicity of caproic acid, the more favorable it is for the survival of the bacterial cells in a system. The growth of the Oscillospiraceae sp. LBM10036 was tracked and measured by designing liquid mediums with different initial concentrations of caproic acid.
The medium contains (calculated in g/L): glucose 20.0, yeast powder 10.0, peptone 10.0, dipotassium hydrogen phosphate 1.0, potassium dihydrogen phosphate 0.5, ammonium sulfate 2.0, magnesium sulfate 0.1, and a cosubstrate 5.0, as well as a trace element nutrient solution 0.15-1.0 (mL/L). The cosubstrate is one or both of acetate and butyrate. The trace element nutrient solution contains (calculated in g/L): calcium chloride 10, cobalt chloride 10, zinc sulfate 10, manganese sulfate 10, and ferrous sulfate heptahydrate 15. The pH of the medium is 5.5, and the medium was sterilized at 115° C. for 30 min.
The dissolved medium was divided into 5 blue cap bottles (100 mL), each blue cap bottle containing 100 mL of medium. Before sterilization, the initial concentrations of caproic acid in the mediums were adjusted to 0 g/L, 1 g/L, 2 g/L, 3 g/L, and 4 g/L using a caproic acid standard. At this point, the initial concentrations of free caproic acid in the mediums were 0 g/L, 0.19 g/L, 0.37 g/L, 0.56 g/L, and 0.75 g/L, respectively. The mediums were sterilized at 115° C. for 30 min. After sterilization, the medium of each initial concentration gradient of caproic acid was divided into 3 parts, each part containing 30 mL in a 50 mL centrifuge tube. The residual mediums were taken out of an anaerobic incubator for re-determining the pH and initial concentrations of total caproic acid, and calculating whether the actual concentrations of free caproic acid meet the experimental design.
(1) An Oscillospiraceae sp. LBM10036 frozen glycerol tube was taken out from a −80° C. refrigerator, activated for cultivation for the first generation at 37° C. in the modified Clostridium growth medium prepared in (1) step 1 until the OD600 was 1.5-2.0 to obtain a first generation seed solution, and then the first generation seed solution was transferred to a fresh modified Clostridium growth medium at an inoculum concentration of 5% (v/v) and activated for the second generation cultivation at 37° C. for 12-18 h until the OD600 was 1.5-2.0 to obtain a second generation seed solution.
(2) 100 mL of the modified Clostridium growth medium described in step (1) was inoculated with the second generation seed solution obtained in step (1) at an inoculum concentration of 5% (v/v) and cultivated until the OD value was 1.5-2.0, to obtain a culture solution.
(3) The mediums with different initial concentration gradients of caproic acid prepared in (2) of step 1 were inoculated with the prepared culture solution at an inoculum concentration of 5% (v/v). The medium of each initial concentration gradient of caproic acid had 3 replicates, and sampled from 0 to 72 h at an interval of 12 h. The maximum specific growth rates under different initial concentration gradients of caproic acid were plotted (as shown in FIG. 4).

SMILES: CCCCCC(=O)O [caproic acid]
- pKa [1]: 4.86
- growth of Oscillospiraceae sp. ([2]; caproic acid 4 g/L (free caproic acid 0.75 g/L)): significantly inhibited
- concentration of free caproic acid at the maximum tolerable initial concentration ([2]; free caproic acid calculated from pH 5.5 and pKa 4.86): 0.56 g/L
- OD600 ([2]; initial caproic acid 1 g/L, 0 h, medium pH 5.5): 0.26 ± 0.00
- OD600 ([2]; initial caproic acid 1 g/L, 12 h, medium pH 5.5): 0.53 ± 0.02
- OD600 ([2]; initial caproic acid 1 g/L, 24 h, medium pH 5.5): 1.96 ± 0.17
- OD600 ([2]; initial caproic acid 1 g/L, 48 h, medium pH 5.5): 2.39 ± 0.20
- OD600 ([2]; initial caproic acid 1 g/L, 72 h, medium pH 5.5): 2.25 ± 0.32
- OD600 ([2]; initial caproic acid 2 g/L, 0 h, medium pH 5.5): 0.27 ± 0.01
- OD600 ([2]; initial caproic acid 2 g/L, 12 h, medium pH 5.5): 0.30 ± 0.02
- OD600 ([2]; initial caproic acid 2 g/L, 24 h, medium pH 5.5): 1.06 ± 0.37
- OD600 ([2]; initial caproic acid 2 g/L, 48 h, medium pH 5.5): 2.00 ± 0.10
- OD600 ([2]; initial caproic acid 2 g/L, 72 h, medium pH 5.5): 1.72 ± 0.17
- OD600 ([2]; initial caproic acid 3 g/L, 0 h, medium pH 5.5): 0.26 ± 0.01
- OD600 ([2]; initial caproic acid 3 g/L, 12 h, medium pH 5.5): 0.69 ± 0.06
- OD600 ([2]; initial caproic acid 3 g/L, 24 h, medium pH 5.5): 0.88 ± 0.07
- OD600 ([2]; initial caproic acid 3 g/L, 48 h, medium pH 5.5): 1.46 ± 0.07
- OD600 ([2]; initial caproic acid 3 g/L, 72 h, medium pH 5.5): 1.44 ± 0.05
- OD600 ([2]; initial caproic acid 4 g/L, 0 h, medium pH 5.5): 0.23 ± 0.01
- OD600 ([2]; initial caproic acid 4 g/L, 12 h, medium pH 5.5): 0.22 ± 0.01
- OD600 ([2]; initial caproic acid 4 g/L, 24 h, medium pH 5.5): 0.20 ± 0.01
- OD600 ([2]; initial caproic acid 4 g/L, 48 h, medium pH 5.5): 0.21 ± 0.04
- OD600 ([2]; initial caproic acid 4 g/L, 72 h, medium pH 5.5): 0.20 ± 0.02
- maximum tolerable initial concentration of caproic acid ([2]; total caproic acid, medium pH 5.5): 3 g/L
